# Source: PubChem BioAssay (NCI)
# “And” between values parts separate entries of the source, which are not always exact repeats. Identical values can stand only once.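 Method: 48-hour compound exposure of cells in 96-well plates, five concentrations, linear interpolation of endpoints. GI50 is the concentration that inhibits growth by half. Definition used: TGI = concentration required for complete inhibition of growth.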
# Experiments:
# Experiment in all cases: NCI anticancer screen, dose series, 48 h
# NCI-H522 lung = test system: NCI-H522 lung
# MALME-3M melanoma = test system: MALME-3M melanoma
# MDA-MB-231 breast = test system: MDA-MB-231 breast
# OVCAR-5 ovarian = test system: OVCAR-5 ovarian
# MDA-MB-435 = test system: MDA-MB-435
# MCF7 breast = test system: MCF7 breast
# HCC-2998 colon = test system: HCC-2998 colon
# HOP-62 NSCLC = test system: HOP-62 NSCLC
# EKVX NSCLC = test system: EKVX NSCLC
# SR leukemia = test system: SR leukemia
SMILES,GI50 (NCI-H522 lung),TGI (NCI-H522 lung) [µM],TGI (MALME-3M melanoma) [µM],GI50 (MDA-MB-231 breast) [µM],TGI (MDA-MB-231 breast) [µM],TGI (OVCAR-5 ovarian) [µM],GI50 (MDA-MB-435),TGI (MDA-MB-435) [µM],GI50 (MCF7 breast) [µM],TGI (MCF7 breast) [µM],GI50 (HCC-2998 colon) [µM],TGI (HCC-2998 colon) [µM],GI50 (HOP-62 NSCLC) [µM],TGI (HOP-62 NSCLC) [µM],TGI (EKVX NSCLC) [µM],GI50 (MALME-3M melanoma) [µM],GI50 (OVCAR-5 ovarian) [µM],GI50 (EKVX NSCLC) [µM],GI50 (SR leukemia) [µM],TGI (SR leukemia) [µM]
COC1C(O)C(C)OC(OC2C(Oc3cccc4c(O)c5c(=O)oc6ccc(C)c7c(=O)oc(c34)c5c67)OC(C)C3O[C@H](c4ccccc4)OC32)C1O (some centres undefined),0.284 µM and 0.262 µM,6.78,3.72,0.455,7.78,12.7,0.309 µM and 0.436 µM,7.22,0.225,4.12,0.276,3.41,0.15,2.17,5.99,–,–,–,–,–
CC(=O)Nc1ccc(-c2c3nc(c(-c4cc5ccccc5[n+](C)c4)c4ccc([nH]4)c(-c4ccc(NC(C)=O)cc4)c4nc(c(-c5cc6ccccc6[n+](C)c5)c5ccc2[nH]5)C=C4)C=C3)cc1,14.6 µM,> 50,> 50,8.1,29.7,> 50,7.19 µM,30.6,34.3,> 50,> 50,> 50,7.3,19.5,31.6,16.9,8.54,9.09,–,–
CC1=CC[C@@H]2C(C)(C)C(=O)CC[C@@]2(C)[C@@H]1COc1ccc2ccc(=O)oc2c1,8.97 µM,50.9,38.9,25.5,> 100,> 100,11.9 µM,29.9,12.4,31.9,30.3,> 100,22.3,85.1,> 100,14.4,25.9,13.6,13.2,68.5
CCNC(C)(C)C(SS)c1ccc(Br)cc1 (centres undefined),–,35.1,> 100,–,> 100,> 100,–,> 100,–,> 100,–,–,–,> 100,> 100,–,–,–,–,> 100
N#CC(C#N)=Cc1c(-c2ccccc2)[nH]c2ccccc12,4.23 µM,32.7,> 100,1.42,30.3,> 100,0.248 µM,0.736,1.07,> 47.2,10.4,35.9,11.2,55.2,> 86.4,15.8,19.6,5.81,> 100,> 100
O=C(/C=C1\C(=O)N(Cc2ccc([N+](=O)[O-])cc2)c2ccccc21)c1ccc(OCCN2CCCCC2)cc1,0.614 µM,1.99,2.74,1.3,2.67,3.09,1.2 µM,2.52,1.43,4.1,1.57,2.93,2.12,6.32,3.9,1.22,1.33,1.56,–,–
CCCCN(CCCC)c1ccc(C(=N)c2ccc(N(C)C)cc2)cc1,–,–,2.23,1.32,2.88,2.86,0.348 µM,1.33,0.377,1.51,0.429,1.62,1.33,2.69,1.45,0.651,1.31,0.334,–,–
O=C(COc1ccc(/C=C2\Oc3ccccc3C2=O)cc1)Nc1nccs1,–,–,> 100,33.4,> 100,> 100,8.47 µM,> 100,43.2,> 100,> 100,> 100,85.3,> 100,> 100,> 100,> 100,51.5,20.8,61
Cc1cc2cccnc2c2ncccc12,3.52 µM,17.9,7.21,0.74,> 100,42.1,2.15 µM,21.9,2.62,> 100,2.75,68.2,1.45,> 100,16,2.17,1.35,0.665,–,–
COc1cc(/C=N/Nc2ncnc3c2cnn3C(C)C)ccc1O,6.78 µM,> 25,> 25,6.27,> 25,> 25,7.66 µM,> 25,4.68,16.1,17.3,> 25,6.5,> 25,> 25,15,8.83,11.6,–,–
COc1cccc(C(=O)Nc2ccc(CN3CCc4nc5cc(OC)c(OC)cc5cc43)cc2)c1,3.94 µM,18.3,27.6,2.59,11,> 100,3.47 µM,19.3,3.19,20.5,4.81,18.5,13.5,37.8,–,4.91,12.9,–,3.07,9.64
CCN(CC)C(=O)CC1=C(C)/C(=C/c2[nH]c(-c3ccc[nH]3)cc2OC)N=C1C,0.456 µM,14,9.05,0.213,0.909,60.9,0.412 µM,14.6,0.458,17.9,–,–,0.504,11.6,38.7,0.982,5.19,0.452,0.289,0.994
Cc1onc(-c2c(F)cccc2Cl)c1-c1ncc(-c2ccc(Cl)cc2)o1,3.79 µM,> 100,> 100,6.5,> 100,> 100,5.59 µM,> 100,4.49,> 100,5.95,> 100,8.45,> 100,–,6.43,74.4,–,2.92,31.3
